Experimental data taken from ChEMBL document CHEMBL1201862, “PubChem BioAssay data set” (2004).
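The compound was tested at five concentrations on cells cultured in 96-well plates, with a 48-hour exposure period. The concentration for 50% growth inhibition is given as GI50.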 Active and inactive are the calls of the source. No stated cut-off is given here; in the data, active = GI50 up to about 1.1 µM and inactive = higher.

Key:
Experiment in all cases: NCI anticancer screen, dose series, 48 h
786-0 = system: 786-0
A498 = system: A498
A549 = system: A549
ACHN = system: ACHN
CCRF-CEM = system: CCRF-CEM
COLO 205 = system: COLO 205
DMS-114 = system: DMS-114
DMS-273 = system: DMS-273
EKVX = system: EKVX
HCC 2998 = system: HCC 2998
HCT-116 = system: HCT-116
HCT-15 = system: HCT-15
HL-60 = system: HL-60
HOP-18 = system: HOP-18
HOP-62 = system: HOP-62
HOP-92 = system: HOP-92
HT-29 = system: HT-29
IGROV-1 = system: IGROV-1
K562 = system: K562
KM-20L2 = system: KM-20L2
KM12 = system: KM12
LOX IMVI = system: LOX IMVI
LXFL 529 = system: LXFL 529
M14 = system: M14
M19-MEL = system: M19-MEL
MOLT-4 = system: MOLT-4
Malme-3M = system: Malme-3M
NCI-H226 = system: NCI-H226
NCI-H23 = system: NCI-H23
NCI-H460 = system: NCI-H460
NCI-H522 = system: NCI-H522
OVCAR-3 = system: OVCAR-3
OVCAR-4 = system: OVCAR-4
OVCAR-5 = system: OVCAR-5
OVCAR-8 = system: OVCAR-8
RPMI-8226 = system: RPMI-8226
RXF 393 = system: RXF 393
SF-268 = system: SF-268
SF-295 = system: SF-295
SF-539 = system: SF-539
SK-MEL-28 = system: SK-MEL-28
SK-MEL-2 = system: SK-MEL-2
SK-MEL-5 = system: SK-MEL-5
SK-OV-3 = system: SK-OV-3
SN12C = system: SN12C
SNB-19 = system: SNB-19
SNB-75 = system: SNB-75
SNB-78 = system: SNB-78
SR = system: SR
SW-620 = system: SW-620
TK-10 = system: TK-10
U-251 = system: U-251
UACC-257 = system: UACC-257
UACC-62 = system: UACC-62
UO-31 = system: UO-31
XF498 = system: XF498

`CCCCc1c2c(nc3c1CCCC3O)/C(=C/c1ccccc1)CCC2` (stereo unspecified) was tested, and the GI50 (786-0) was 22.3 µM (inactive), the GI50 (A498) was 54.1 µM (inactive) and the GI50 (A549) was 49.5 µM (inactive). The GI50 (ACHN) was 34.8 µM (inactive), the GI50 (CCRF-CEM) was 15.9 µM (inactive) and the GI50 (COLO 205) was 17.9 µM (inactive). For the same molecule, the GI50 (DMS-114) was 22.9 µM (inactive), the GI50 (DMS-273) was 20.7 µM (inactive) and the GI50 (EKVX) was 29.6 µM (inactive). The GI50 (HCC 2998) was 9.84 µM (inactive), the GI50 (HCT-116) was 36.6 µM (inactive) and the GI50 (HCT-15) was 16 µM. The GI50 (HL-60) was 17.3 µM (inactive), the GI50 (HOP-18) was 24.4 µM (inactive) and the GI50 (HOP-62) was 36.5 µM (inactive). For the same molecule, the GI50 (HOP-92) was 38.7 µM (inactive), the GI50 (HT-29) was 22.1 µM (inactive) and the GI50 (IGROV-1) was 45.8 µM (inactive). For the same molecule, the GI50 (K562) was 11.4 µM (inactive), the GI50 (KM-20L2) was 35.2 µM (inactive) and the GI50 (KM12) was 18.7 µM (inactive). For the same molecule, the GI50 (LOX IMVI) was 19.7 µM (inactive), the GI50 (LXFL 529) was 34.1 µM (inactive) and the GI50 (M14) was 23.1 µM (inactive). The GI50 (M19-MEL) was 23.1 µM (inactive), the GI50 (MOLT-4) was 11.6 µM (inactive) and the GI50 (Malme-3M) was 20.2 µM (inactive). The GI50 (NCI-H226) was 26.1 µM (inactive), the GI50 (NCI-H23) was 27.3 µM (inactive) and the GI50 (NCI-H460) was 17.1 µM (inactive). For the same molecule, the GI50 (NCI-H522) was 21.7 µM (inactive), the GI50 (OVCAR-3) was 18.7 µM (inactive) and the GI50 (OVCAR-4) was 63.7 µM (inactive). The GI50 (OVCAR-5) was 32.8 µM (inactive), the GI50 (OVCAR-8) was 32 µM (inactive) and the GI50 (RPMI-8226) was 16.8 µM (inactive). The GI50 (RXF 393) was 39.9 µM (inactive), the GI50 (SF-268) was 31.3 µM (inactive) and the GI50 (SF-295) was 42.3 µM (inactive). For the same molecule, the GI50 (SF-539) was 28.1 µM (inactive), the GI50 (SK-MEL-28) was 33.5 µM (inactive) and the GI50 (SK-MEL-2) was 24.8 µM (inactive). The GI50 (SK-MEL-5) was 21.7 µM (inactive), the GI50 (SK-OV-3) was 38.5 µM (inactive) and the GI50 (SN12C) was 23.2 µM (inactive). For the same molecule, the GI50 (SNB-19) was 43.1 µM (inactive), the GI50 (SNB-75) was 35.3 µM (inactive) and the GI50 (SNB-78) was 56 µM (inactive). The GI50 (SR) was 14 µM (inactive), the GI50 (SW-620) was 26.2 µM (inactive) and the GI50 (TK-10) was 26.9 µM (inactive). The GI50 (U-251) was 28 µM (inactive), the GI50 (UACC-257) was 30 µM (inactive) and the GI50 (UACC-62) was 33.8 µM (inactive). The GI50 (UO-31) was 42.9 µM (inactive) and the GI50 (XF498) was 13.2 µM (inactive).
